Measured values reported in patent US12281080B2, “Quinoline-based compounds and methods of inhibiting CDK8/19” (University of South Carolina, priority 2018, dated 2025).

Assays:
CDK8/19 = experiment: Wash-off assay, MYC and JUN expression in 293 cells (QPCR); format: cell-based, human; conditions: 1 μM for 2 hours, then wash-off; MYC and JUN
Method: RNA was extracted at different time points after wash-off (up to 24 hrs) and expression of MYC and JUN genes that are CDK8/19-dependent in these cells was measured by QPCR. […] In contrast, after Senexin C treatment and wash-off, the effects of Senexin C were largely retained for at least 6 hrs after wash-off.

DYRK1B = DYRK1B (Homo sapiens (Human), UniProt Q9Y463); experiment: KINOMEscan scanMAX; format: binding; conditions: 2000 nM; read-out: Percent Control
AURKA = AURKA (Homo sapiens (Human), UniProt O14965); experiment: KINOMEscan scanMAX; format: binding; conditions: 2000 nM; read-out: Percent Control
[1] = molecular target: RPS6KA4(Kin.Dom.2-C-terminal) (Homo sapiens (Human), UniProt O75676); experiment: KINOMEscan scanMAX; format: binding; conditions: 2000 nM; read-out: Percent Control
PKAC-alpha (PRKACA) = PKAC-alpha (PRKACA) (Homo sapiens (Human), UniProt P17612); experiment: KINOMEscan scanMAX; format: binding; conditions: 2000 nM; read-out: Percent Control
ERBB2 = ERBB2 (Homo sapiens (Human), UniProt P04626); experiment: KINOMEscan scanMAX; format: binding; conditions: 2000 nM; read-out: Percent Control
Sequence of ERBB2 (P04626 23-1255): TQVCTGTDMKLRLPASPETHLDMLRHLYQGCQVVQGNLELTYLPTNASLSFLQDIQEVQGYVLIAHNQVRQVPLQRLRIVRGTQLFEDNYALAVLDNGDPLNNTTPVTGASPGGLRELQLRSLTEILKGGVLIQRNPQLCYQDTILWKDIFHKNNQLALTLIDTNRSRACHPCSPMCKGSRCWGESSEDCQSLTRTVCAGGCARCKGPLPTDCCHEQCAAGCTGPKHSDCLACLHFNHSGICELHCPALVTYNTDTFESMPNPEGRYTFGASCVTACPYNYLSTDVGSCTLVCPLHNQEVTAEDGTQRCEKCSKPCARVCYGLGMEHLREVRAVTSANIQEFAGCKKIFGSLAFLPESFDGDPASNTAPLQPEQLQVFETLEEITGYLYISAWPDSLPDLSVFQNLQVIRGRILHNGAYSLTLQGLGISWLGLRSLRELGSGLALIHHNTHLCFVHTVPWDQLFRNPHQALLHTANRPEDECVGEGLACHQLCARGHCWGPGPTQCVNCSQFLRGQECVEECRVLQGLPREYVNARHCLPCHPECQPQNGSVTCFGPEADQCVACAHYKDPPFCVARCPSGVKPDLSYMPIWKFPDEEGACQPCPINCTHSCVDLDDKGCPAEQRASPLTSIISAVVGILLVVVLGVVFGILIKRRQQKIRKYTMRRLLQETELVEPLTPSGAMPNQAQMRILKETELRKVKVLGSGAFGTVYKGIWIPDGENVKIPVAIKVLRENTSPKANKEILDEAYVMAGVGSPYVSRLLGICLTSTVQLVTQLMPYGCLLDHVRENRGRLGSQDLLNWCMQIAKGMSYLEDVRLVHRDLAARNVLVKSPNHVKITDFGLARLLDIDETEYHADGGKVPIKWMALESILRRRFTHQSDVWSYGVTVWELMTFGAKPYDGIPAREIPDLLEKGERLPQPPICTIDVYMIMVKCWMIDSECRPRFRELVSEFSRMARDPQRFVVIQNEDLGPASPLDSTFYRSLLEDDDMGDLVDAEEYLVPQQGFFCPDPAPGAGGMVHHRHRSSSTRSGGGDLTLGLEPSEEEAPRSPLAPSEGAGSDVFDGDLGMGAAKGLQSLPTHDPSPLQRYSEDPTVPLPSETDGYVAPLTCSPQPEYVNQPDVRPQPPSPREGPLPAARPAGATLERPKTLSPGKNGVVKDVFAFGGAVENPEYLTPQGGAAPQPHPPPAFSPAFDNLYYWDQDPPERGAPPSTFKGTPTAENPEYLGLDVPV

Sequence of RPS6KA4(Kin.Dom.2-C-terminal) (O75676 411-674): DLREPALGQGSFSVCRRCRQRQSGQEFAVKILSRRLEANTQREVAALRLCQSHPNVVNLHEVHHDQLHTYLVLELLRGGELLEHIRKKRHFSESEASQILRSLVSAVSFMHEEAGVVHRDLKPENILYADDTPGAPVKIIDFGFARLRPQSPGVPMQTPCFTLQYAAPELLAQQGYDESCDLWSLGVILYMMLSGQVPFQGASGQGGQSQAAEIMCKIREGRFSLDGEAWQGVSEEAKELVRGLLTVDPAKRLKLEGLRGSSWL
Sequence of AURKA (O14965 whole entry): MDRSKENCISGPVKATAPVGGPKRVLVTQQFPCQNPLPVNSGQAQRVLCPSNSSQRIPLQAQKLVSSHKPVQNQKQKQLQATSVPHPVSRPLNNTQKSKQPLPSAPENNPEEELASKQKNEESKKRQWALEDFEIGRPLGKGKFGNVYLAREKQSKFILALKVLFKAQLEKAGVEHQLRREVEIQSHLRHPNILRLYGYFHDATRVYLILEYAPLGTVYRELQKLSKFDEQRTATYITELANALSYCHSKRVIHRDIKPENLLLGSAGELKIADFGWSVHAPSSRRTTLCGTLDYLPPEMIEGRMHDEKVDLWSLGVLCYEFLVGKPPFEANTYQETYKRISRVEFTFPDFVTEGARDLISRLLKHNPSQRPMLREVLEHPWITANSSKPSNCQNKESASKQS
Sequence of DYRK1B (Q9Y463 whole entry): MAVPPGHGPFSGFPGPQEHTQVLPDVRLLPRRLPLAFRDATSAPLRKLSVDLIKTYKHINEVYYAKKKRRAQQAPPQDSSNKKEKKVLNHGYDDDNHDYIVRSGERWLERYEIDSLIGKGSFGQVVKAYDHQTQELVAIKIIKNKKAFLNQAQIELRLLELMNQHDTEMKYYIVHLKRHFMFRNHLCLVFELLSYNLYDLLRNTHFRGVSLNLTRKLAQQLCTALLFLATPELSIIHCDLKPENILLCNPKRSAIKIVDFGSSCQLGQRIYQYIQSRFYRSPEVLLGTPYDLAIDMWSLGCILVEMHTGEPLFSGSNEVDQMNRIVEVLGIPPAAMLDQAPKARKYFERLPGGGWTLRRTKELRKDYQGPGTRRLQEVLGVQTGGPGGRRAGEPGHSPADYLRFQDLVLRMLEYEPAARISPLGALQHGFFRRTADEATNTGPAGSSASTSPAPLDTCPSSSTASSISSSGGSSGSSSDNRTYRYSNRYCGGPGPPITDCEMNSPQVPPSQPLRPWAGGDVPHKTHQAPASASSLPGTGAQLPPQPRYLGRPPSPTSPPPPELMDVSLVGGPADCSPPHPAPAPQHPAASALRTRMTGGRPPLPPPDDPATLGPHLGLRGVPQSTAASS

For CN1CCN(C(=O)c2ccc3cc(CCNc4ccnc5ccc(C#N)cc45)ccc3c2)CC1 [compound 6148, 4-((2-(6-(4-methylpiperazine-1-carbonyl)naphthalen-2-yl)ethyl)amino)quinoline-6-carbonitrile], the “Time effects largely retained after wash-off” value (CDK8/19) was “at least 6 hrs”, the remaining binding at 2 µM (DYRK1B) was 83% and the remaining binding at 2 µM (AURKA) was 88%. The remaining binding at 2 µM [1] was 62%, the remaining binding at 2 µM (PKAC-alpha (PRKACA)) was 93% and the remaining binding at 2 µM (ERBB2) was 73%.
